According to PubChem BioAssay (NCI):
“And” between values parts separate entries of the source, which are not always exact repeats. Equal values may be shown once.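 Cultured in 96-well plates, cells were exposed to test compound for 48 hours across five concentrations. GI50: concentration for 50% inhibition of growth. TGI: total growth inhibition.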

Assays:
Test in all cases: NCI tumour cell line growth inhibition, 48 h
CAKI-1 renal = tested on: CAKI-1 renal
DMS 114 small cell lung = tested on: DMS 114 small cell lung
DMS 273 small cell lung = tested on: DMS 273 small cell lung
HCT-116 colon = tested on: HCT-116 colon
LOX IMVI melanoma = tested on: LOX IMVI melanoma
MCF7 breast = tested on: MCF7 breast
MDA-MB-231 breast = tested on: MDA-MB-231 breast
MOLT-4 leukemia = tested on: MOLT-4 leukemia
NCI-H23 lung = tested on: NCI-H23 lung
OVCAR-4 ovarian = tested on: OVCAR-4 ovarian
P388/ADR leukemia = tested on: P388/ADR leukemia
SF-539 CNS = tested on: SF-539 CNS
SK-MEL-5 melanoma = tested on: SK-MEL-5 melanoma
UACC-257 melanoma = tested on: UACC-257 melanoma
UO-31 renal = tested on: UO-31 renal

SMILES: C/C(=C\COc1ccc2ccc(=O)oc2c1)C1=CC(=O)C(C)(C)O1
- GI50 (CAKI-1 renal): 3.77 µM
- TGI (CAKI-1 renal): 14.6 µM and 19.8 µM
- TGI (DMS 114 small cell lung): 9.44 µM
- TGI (DMS 273 small cell lung): 27.9 µM
- GI50 (HCT-116 colon): 2.84 µM
- TGI (HCT-116 colon): 7.57 µM and 6.64 µM
- GI50 (LOX IMVI melanoma): 2.2 µM
- TGI (LOX IMVI melanoma): 9.69 µM and 7.47 µM
- GI50 (MCF7 breast): 2.35 µM and 1.09 µM
- TGI (MCF7 breast): 12.9 µM and 5.4 µM
- TGI (MDA-MB-231 breast): 22.9 µM
- GI50 (MOLT-4 leukemia): 3.25 µM
- TGI (MOLT-4 leukemia): 15 µM and 20.2 µM
- GI50 (NCI-H23 lung): 2.79 µM
- TGI (NCI-H23 lung): 12.3 µM and 8.98 µM
- GI50 (OVCAR-4 ovarian): 4.3 µM
- TGI (OVCAR-4 ovarian): 24.8 µM and 7.56 µM
- TGI (P388/ADR leukemia): 7.3 µM
- TGI (SF-539 CNS): 4.88 µM and 8.64 µM
- GI50 (SK-MEL-5 melanoma): 2.72 µM
- TGI (SK-MEL-5 melanoma): 13.3 µM and 6.95 µM
- GI50 (UACC-257 melanoma): 7.22 µM
- TGI (UACC-257 melanoma): 29.7 µM and 11.3 µM
- GI50 (UO-31 renal): 3.83 µM
- TGI (UO-31 renal): 14.7 µM and 14 µM
